Source: US7473822B1, “Soybean transformation and regeneration using half-seed explant” (Iowa State University Research Foundation, Inc., priority 2005, dated 2009)

Legend:
[1] = system: Thorne soybean half-seed explants; assay: Agrobacterium-mediated transformation and regeneration of half-seed explants from seeds soaked in BAP; details: for Initial Transformation Efficiency (ITE; %): ITE = no. of Liberty-resistant R0 events/no. of explants infected
Method: Mature Thorne soybean seeds were surface-sterilized for 16 hrs using chlorine gas, which was produced by mixing 3.5 ml of 12 N HCl with 100 ml of commercial bleach (5.25% sodium hypochloride) (Di et al., Plant Cell Rep. 15: 746-750 (1996)). […] The seeds were then split by cutting longitudinally along the hilums to separate the cotyledons, and the seed coats, primary shoots, and embryonic axes were removed, thereby generating half-seed explants. The half-seed explants were co-cultivated with A. tumefaciens for five days in the light. […]
About 50-100 half-seed explants were inoculated with 30 ml of Agrobacterium suspension culture in a 20×100 mm Petri dish at RT for 30 min. After inoculation, half-seed explants were transferred to co-cultivation medium lined with filter paper (6 explants per plate; flat side of explant in contact with filter paper) (see Table II). Co-cultivation was carried out for five days at 24° C. with 18 hr photoperiod at 140 μmoles sec^−1m^−2 light intensity.
(§1) After co-cultivation, the half-seed explants were washed in liquid shoot induction (SI) medium (see Table III). The explants were cultured on shoot induction medium solidified with 0.7% agar in the absence of selection. The base of the explant (i.e., the part of the explant from where the embryonic axis was removed) was embedded in the medium, facing upwards. […] Shoot induction was carried out in a Percival Biological Incubator at 24° C. with an 18-hr photoperiod at 140 μmoles sec^−1m^−2 light intensity. After 14 days, the explants were transferred to fresh shoot induction medium containing 6 mg/l glufosinate. After four weeks of culture on shoot induction medium, explants were transferred to shoot elongation (SE) medium containing 6 mg/l glufosinate (see Table IV). Two to four weeks later, elongated shoots (>2.5 cm) were dipped in sterile IBA (1 mg/l) and then transferred to rooting medium (see Table V) without glufosinate. After two weeks, agar medium was rinsed off of the rooted plantlets with water, and the rooted plantlets were transplanted to soil (Redi-Earth, Peat-Lite Mix, Scotts-Sierra Horticultural Products Company, Marysville, Ohio) in jiffy pots. The plant (R0) was grown at 24° C. with an 18-hr photoperiod for one-two weeks and then transferred to the greenhouse.
R0 plants with two trifoliates were screened using the herbicide paint assay to identify putative transformants that expressed the bar gene. The upper surface of a leaf was painted with 150 mg/l glufosinate (herbicide Liberty®, AgrEvo, U.S.A.) along the midrib using a cotton bud. Plants were scored based on the tolerance of the leaf tissue to glufosinate at three-five days after painting. Glufosinate-resistant R0 plants were grown in the greenhouse until maturity and seeds were harvested. Subsequently, seeds from R0 plants were sown and progeny-tested to confirm the presence of the transgene in the R1 generation by spraying two-week-old seedlings with 200 mg/l glufosinate. Plants were scored one week after spraying. Thirty-two transgenic events were confirmed in the R1 progeny by spraying with 200 mg/l glufosinate using herbicide Liberty. […] Plants were fertile and produced seed.
After five days of co-cultivation, half-seed explants infected with pTF102 were assayed for transient GUS blue expression to verify T-DNA transfer. The explants were incubated overnight in 5-bromo-4-chloro-3-indolyl glucuronide (X-gluc) solution at 37° C. (Jefferson et al., EMBO J 6: 3901-3907 (1987)). After staining, the explants were de-stained with 70% ethanol to improve contrast. The incidence of GUS activity was determined based on the presence of blue-staining areas. In addition, stable GUS expression was determined after 28 days on regeneration medium or on R0 plants. The transgenic nature of the soybean plants was also confirmed in the R0 or R1 generation by histochemical GUS assay.

[2] = system: soybean half-seed explants; assay: Shoot induction on half-seed explants with BAP added to shoot induction medium; details: BAP 15-100 μM in shoot induction medium, compared to no treatment or 2.5-7.5 μM
Method: as §1

`c1ccc(CNc2ncnc3nc[nH]c23)cc1` [BAP, 6-benzylaminopurine] was tested, and the “Freq. GUS blue (on the section of explant where shoots were induced)” value ([1]; seeds soaked in 7.5 μM BAP) was “(10%)”, the “Freq. GUS blue (on the section of explant where shoots were induced), count” value (shortened to “Freq. GUS blue … count”) ([1]; seeds soaked in 7.5 μM BAP) was 1/10 and the “No. of Liberty-resistant R0 plants” value ([1]; seeds soaked in 7.5 μM BAP) was 0. The “Reg. Freq. (%) (regeneration frequency at first shoot induction stage)” value (“Reg. Freq. (%)” below) ([1]; seeds soaked in 7.5 μM BAP) was “(8) %”, the “Reg. Freq. (regeneration frequency at first shoot induction stage), explants count” value ([1]; seeds soaked in 7.5 μM BAP) was 4/50 and the “Initial Transformation Efficiency (ITE; %)” value ([1]; seeds soaked in 7.5 μM BAP) was 0.0%. For the same compound, the “Freq. GUS blue (on the section of explant where shoots were induced)” value ([1]; seeds soaked in 15 μM BAP) was “(20%)”, the “Freq. GUS blue … count” value ([1]; seeds soaked in 15 μM BAP) was 2/10 and the “No. of Liberty-resistant R0 plants” value ([1]; seeds soaked in 15 μM BAP) was 3. The “Reg. Freq. (%)” value ([1]; seeds soaked in 15 μM BAP) was “(48) %”, the “Reg. Freq. (regeneration frequency at first shoot induction stage), explants count” value ([1]; seeds soaked in 15 μM BAP) was 24/50 and the “Initial Transformation Efficiency (ITE; %)” value ([1]; seeds soaked in 15 μM BAP) was 6.0%. For the same compound, the “Freq. GUS blue (on the section of explant where shoots were induced)” value ([1]; seeds soaked in 30 μM BAP) was “(90%)”, the “Freq. GUS blue … count” value ([1]; seeds soaked in 30 μM BAP) was 9/10 and the “No. of Liberty-resistant R0 plants” value ([1]; seeds soaked in 30 μM BAP) was 2. The “Reg. Freq. (%)” value ([1]; seeds soaked in 30 μM BAP) was “(58) %”, the “Reg. Freq. (regeneration frequency at first shoot induction stage), explants count” value ([1]; seeds soaked in 30 μM BAP) was 29/50 and the “Initial Transformation Efficiency (ITE; %)” value ([1]; seeds soaked in 30 μM BAP) was 4.0%. For the same compound, the “Freq. GUS blue (on the section of explant where shoots were induced)” value ([1]; seeds soaked in 50 μM BAP) was “(67%)”, the “Freq. GUS blue … count” value ([1]; seeds soaked in 50 μM BAP) was 6/9 and the “No. of Liberty-resistant R0 plants” value ([1]; seeds soaked in 50 μM BAP) was 0. For the same compound, the “Reg. Freq. (%)” value ([1]; seeds soaked in 50 μM BAP) was “(46) %”, the “Reg. Freq. (regeneration frequency at first shoot induction stage), explants count” value ([1]; seeds soaked in 50 μM BAP) was 23/50 and the “Initial Transformation Efficiency (ITE; %)” value ([1]; seeds soaked in 50 μM BAP) was 0.0%. The “shoot formation (regeneration frequency)” value [2] was “enhanced shoot formation”.
